Measured values published in patent US10017507B2, “Diaza-benzofluoranthrene compounds” (HARBIN PHARMACEUTICAL GROUP CO., LTD. GENERAL …, priority 2015, dated 2018).
pIC50: −log10 of the molar value.

The compounds below were run against T1, PDE1A (Homo sapiens, UniProt P54750) (assay: In vitro detection of phosphodiesterase (PDE): PDE1A enzyme activity by fluorescence polarization immunoassay). Conditions: human-derived enzyme, cAMP or cGMP substrate; read-out: IC50s for PDE1.
T1 construct: purchased SignalChem
Format: biochemical
Method: Test 1: In Vitro Detection of Phosphodiesterase (PDE)
the enzyme activity of PDE1A was determined by detecting the production of AMP/GMP by fluorescence polarization immunoassay, wherein AlexaFluor 633 labeled AMP/GMP was used to replace AMP/GMP to bind with the antibody.
Reaction buffer: 10 mM Tris-HCl, pH 7.5, 5 mM magnesium chloride, 0.01% Brij 35, 1 mM DTT and 1% DMSO;
Enzyme substrate: […] cAMP or cGMP (Ca^2+-calmodulin acts as a cofactor of PDE1A)
Detection reagent: Transcreener® AMP2/GMP2 antibody; AMP2/GMP2 AlexaFluor 633 tracer.
Experimental Procedure and Method:
1. Human-derived enzyme (commercially available from SignalChem) to be tested and substrate were diluted with freshly prepared reaction buffer;
2. The enzyme solution (with a concentration of 3 pM) was added to the holes of the microplates;
3. A series of solutions of the compounds in 100% DMSO (with the desired concentrations) were added to the holes containing the enzyme solution by Echo550, and then the microplates were incubated for 10 minutes at room temperature;
4. The substrate solution was added to the holes containing the enzyme and compounds to start the reaction;
5. The microplates were incubated for 1 hour under room temperature and vibration;
6. The detection mixture (tracer and antibody in stop buffer) was added to stop the enzyme reaction, and the microplates were incubated for 90 minutes under vibration;
7. The equipment EnVision (PerkinElmer), Cy5 FP Ex FP 620, Em S-pol 688/P-pol 688, FP mirror D658fp/D688 was used to detect the reaction mixture, and Ex/Em 620/688 was used to detect the fluorescence polarization.
In the Excel table, the enzyme activity corresponding to the FP signal was found on the AMP/GMP standard curve by reference to the DMSO negative control, and then was converted to product concentration (nM). GraphPad Prism was used to analyze and calculate the IC50 values.

Structure (SMILES)	pIC50
CC[C@@]12C=C(C(O)C(F)(F)F)n3c4c(c5ccccc53)CCN(CCC1)[C@H]42 (stereo partly drawn) [Example 1, 1-((4^1S,13aS)-13a-ethyl-2,3,4^1,5,6,13a-hexahydro-1H-indolyl[3,2,1-de]pyridyl[3,2,1-ij][1,5]naphthyridine-12-yl)-2,2,2-trifluoroethanol]	< 4.00
CC[C@@]12C=C(/C(C#N)=N/OC)n3c4c(c5ccccc53)CCN(CCC1)[C@H]42 [Example 2, (4^1S,13aS,Z)-13a-ethyl-N-methoxyl-2,3,4^1,5,6,13a-hexahydro-1H-indolo[3,2,1-de]pyrido[3,2,1-ij][1,5]naphthyridine-12-carbimidoyl cyanide]	4.70 to 6.00
CC[C@@]12C=C(c3ncc[nH]3)n3c4c(c5ccccc53)CCN(CCC1)[C@H]42 [Example 3, (4^1S,13aS)-13a-ethyl-12-(1H-imidazol-2-yl)-2,3,4^1,5,6,13a-hexahydro-1H-indolo[3,2,1-de]pyrido[3,2,1-ij][1,5]naphthyridine]	< 4.00
CC[C@@]12C=C(c3cnco3)n3c4c(c5ccccc53)CCN(CCC1)[C@H]42 [Example 4, 5-((4^1S,13aS)-13a-ethyl-2,3,4^1,5,6,13a-hexahydro-1H-indolo[3,2,1-de]pyrido[3,2,1-ij][1,5]naphthyridin-12-yl)oxazole]	4.00 to 4.70
CC[C@@]12C=C(/C=C/C(=O)O)n3c4c(c5ccccc53)CCN(CCC1)[C@H]42 [Example 5, (E)-3-((4^1S,13aS)-13a-ethyl-2,3,4^1,5,6,13a-hexahydro-1H-indolo[3,2,1-de]pyrido[3,2,1-ij][1,5]naphthyridin-12-yl)acrylic acid]	< 4.00
CCOC(=O)/C=C/C1=C[C@]2(CC)CCCN3CCc4c(n1c1ccccc41)[C@@H]32 [Example 6, (E)-ethyl-3-((4^1S,13aS)-13a-ethyl-2,3,4^1,5,6,13a-hexahydro-1H-indolo[3,2,1-de]pyrido[3,2,1-ij][1,5]naphthyridin-12-yl)acrylate]	4.70 to 6.00
CC[C@@]12C=C(/C=C/C(N)=O)n3c4c(c5ccccc53)CCN(CCC1)[C@H]42 [Example 7, (E)-3-((4^1S,13aS)-13a-ethyl-2,3,4^1,5,6,13a-hexahydro-1H-indolo[3,2,1-de]pyrido[3,2,1-ij][1,5]naphthyridin-12-yl)acrylamide]	4.00 to 4.70
CC[C@@]12C=C(c3nccc(C)n3)n3c4c(c5ccccc53)CCN(CCC1)[C@H]42 [Example 8, (4^1S,13aS)-13a-ethyl-12-(4-methylpyrimidin-2-yl)-2,3,4^1,5,6,13a-hexahydro-1H-indolo[3,2,1-de]pyrido[3,2,1-ij][1,5]naphthyridine]	4.00 to 4.70
CC[C@@]12C=C(c3ccc(C)nn3)n3c4c(c5ccccc53)CCN(CCC1)[C@H]42 [Example 9, (4^1S,13aS)-13a-ethyl-12-(6-methylpyridazin-3-yl)-2,3,4^1,5,6,13a-hexahydro-1H-indolo[3,2,1-de]pyrido[3,2,1-ij][1,5]naphthyridine]	4.70 to 6.00
CC[C@@]12C=C(c3cncc(C)n3)n3c4c(c5ccccc53)CCN(CCC1)[C@H]42 [Example 10, (4^1S,13aS)-13a-ethyl-12-(6-methylpyrazin-2-yl)-2,3,4^1,5,6,13a-hexahydro-1H-indolo[3,2,1-de]pyrido[3,2,1-ij][1,5]naphthyridine]	4.70 to 6.00
CC[C@@]12C=C(c3ccccn3)n3c4c(c5ccccc53)CCN(CCC1)[C@H]42 [Example 11, (4^1S,13aS)-13a-ethyl-12-(pyridin-2-yl)-2,3,4^1,5,6,13a-hexahydro-1H-indolo[3,2,1-de]pyrid o[3,2,1-ij][1,5]naphthyridine]	4.00 to 4.70
CC[C@@]12C=C(c3cccc(C)n3)n3c4c(c5ccccc53)CCN(CCC1)[C@H]42 [Example 12, (4^1S,13aS)-13a-ethyl-12-(6-methylpyridin-2-yl)-2,3,4^1,5,6,13a-hexahydro-1H-indolo[3,2,1-de]pyrido[3,2,1-ij][1,5]naphthyridine]	4.70 to 6.00
CC[C@@]12C=C(c3ncccc3C)n3c4c(c5ccccc53)CCN(CCC1)[C@H]42 [Example 13, (4^1S,13aS)-13a-ethyl-12-(3-methylpyridin-2-yl)-2,3,4^1,5,6,13a-hexahydro-1H-indolo[3,2,1-de]pyrido[3,2,1-ij][1,5]naphthyridine]	4.00 to 4.70
CC[C@@]12C=C(c3cnc(C)c(C)n3)n3c4c(c5ccccc53)CCN(CCC1)[C@H]42 [Example 14, (4^1S,13aS)-12-(5,6-dimethylpyrazin-2-yl)-13a-ethyl-2,3,4^1,5,6,13a-hexahydro-1H-indolo[3,2,1-de]pyrido[3,2,1-ij][1,5]naphthyridine]	4.70 to 6.00
CC[C@@]12C=C(c3nnco3)n3c4c(c5ccccc53)CCN(CCC1)[C@H]42 [Example 15, 2-((4^1S,13aS)-13a-ethyl-2,3,4^1,5,6,13a-hexahydro-1H-indolo[3,2,1-de]pyrido[3,2,1-ij][1,5]naphthyridin-12-yl)-1,3,4-oxadiazole]	< 4.00
CC[C@@]12C=C(c3n[nH]c(=O)o3)n3c4c(c5ccccc53)CCN(CCC1)[C@H]42 [Example 16, 5-((4^1S,13aS)-13a-ethyl-2,3,4^1,5,6,13a-hexahydro-1H-indolo[3,2,1-de]pyrido[3,2,1-ij][1,5]naphthyridin-12-yl)-1,3,4-oxadiazol-2(3H)-one]	4.70 to 6.00
CC[C@@]12C=C(c3nnc(C)o3)n3c4c(c5ccccc53)CCN(CCC1)[C@H]42 [Example 17, 2-((4^1S,13aS)-13a-ethyl-2,3,4^1,5,6,13a-hexahydro-1H-indolo[3,2,1-de]pyrido[3,2,1-ij][1,5]naphthyridin-12-yl)-5-methyl-1,3,4-oxadiazole]	4.70 to 6.00
CC[C@@]12C=C(c3noc(=O)[nH]3)n3c4c(c5ccccc53)CCN(CCC1)[C@H]42 [Example 18, 3-((4^1S,13aS)-13a-ethyl-2,3,4^1,5,6,13a-hexahydro-1H-indolo[3,2,1-de]pyrido[3,2,1-ij][1,5]naphthyridin-12-yl)-1,2,4-oxadiazol-5 (4H)-one]	< 4.00
CC[C@@]12C=C(c3nsc(=O)[nH]3)n3c4c(c5ccccc53)CCN(CCC1)[C@H]42 [Example 19, 3-((4^1S,13aS)-13a-ethyl-2,3,4^1,5,6,13a-hexahydro-1H-indolo[3,2,1-de]pyrido[3,2,1-ij][1,5]naphthyridin-12-yl)-1,2,4-thiadiazol-5(4H)-one]	< 4.00
CC[C@@]12C=C(c3noc(C)n3)n3c4c(c5ccccc53)CCN(CCC1)[C@H]42 [Example 20, 3-((4^1S,13aS)-13a-ethyl-2,3,4^1,5,6,13a-hexahydro-1H-indolo[3,2,1-de]pyrido[3,2,1-ij][1,5]naphthyridin-12-yl)-5-methyl-1,2,4-oxadiazole]	4.70 to 6.00
CC[C@@]12C=C(c3noc(C(F)(F)F)n3)n3c4c(c5ccccc53)CCN(CCC1)[C@H]42 [Example 21, 3-((4^1S,13aS)-13a-ethyl-2,3,4^1,5,6,13a-hexahydro-1H-indolo[3,2,1-de]pyrido[3,2,1-ij][1,5]naphthyridin-12-yl)-5-trifluoromethyl-1,2,4-oxadiazole]	< 4.00
CC[C@@]12C=C(c3nc(C(F)(F)F)no3)n3c4c(c5ccccc53)CCN(CCC1)[C@H]42 [Example 22, 5-((4^1S,13aS)-13a-ethyl-2,3,4^1,5,6,13a-hexahydro-1H-indolo[3,2,1-de]pyrido[3,2,1-ij][1,5]naphthyridin-12-yl)-3-trifluoromethyl-1,2,4-oxadiazole]	4.00 to 4.70
CC[C@@]12C=C(c3noc(C4CCOCC4)n3)n3c4c(c5ccccc53)CCN(CCC1)[C@H]42 [Example 23, 3-((4^1S,13aS)-13a-ethyl-2,3,4^1,5,6,13a-hexahydro-1H-indolo[3,2,1-de]pyrido[3,2,1-ij][1,5]naphthyridin-12-yl)-5-(tetrahydro-2H-pyran-4-yl)-1,2,4-oxadiazole]	4.70 to 6.00
CC[C@@]12C=C(c3noc(-c4ccncc4)n3)n3c4c(c5ccccc53)CCN(CCC1)[C@H]42 [Example 24, 3-((4^1S,13aS)-13a-ethyl-2,3,4^1,5,6,13a-hexahydro-1H-indolo[3,2,1-de]pyrido[3,2,1-ij][1,5]naphthyridin-12-yl)-5-(pyridin-4-yl)-1,2,4-oxadiazole]	4.00 to 4.70
CC[C@@]12C=C(c3noc(C(C)(C)O)n3)n3c4c(c5ccccc53)CCN(CCC1)[C@H]42 [Example 25, 2-(3-((4^1S,13aS)-13a-ethyl-2,3,4^1,5,6,13a-hexahydro-1H-indolo[3,2,1-de]pyrido[3,2,1-ij][1,5]naphthyridin-12-yl)-1,2,4-oxadiazol-5-yl)propan-2-ol]	4.70 to 6.00
CC[C@@]12C=C(c3noc(C4CCN(C(=O)OC(C)(C)C)CC4)n3)n3c4c(c5ccccc53)CCN(CCC1)[C@H]42 [Example 26, Tert-butyl-4-(3-((4^1S,13aS)-13a-ethyl-2,3,4^1,5,6,13a-hexahydro-1H-indolo[3,2,1-de]pyrido[3,2,1-ij][1,5]naphthyridin-12-yl)-1,2,4-oxadiazol-5-yl)piperidine-1-carboxylate]	< 4.00
